Test results as given in ChEMBL document CHEMBL1155838, “Biphenyl amide p38 kinase inhibitors 3: Improvement of cellular and in vivo activity” (Bioorg Med Chem Lett, 2008).

Tests used:
Type in all cases: ADME, organism-based
[1] = Clearance in Lewis rat plasma at 0.5 mg/kg, iv; parameters: dose 0.5 mg/kg, route intravenous
[2] = Volume of distribution at steady state in Lewis rat at 0.5 mg/kg, iv; parameters: dose 0.5 mg/kg, route intravenous; conditions: in vivo, read-out: Vdss
[3] = Terminal half life in Lewis rat plasma at 0.5 mg/kg, iv; parameters: dose 0.5 mg/kg, route intravenous; conditions: read-out: beta t1/2 (converted)
[4] = Oral bioavailability in Lewis rat at […]; conditions: in vivo

clearance [1]: 6 mL/min/kg
Vd [2]: 0.6 L/kg
half-life [3]: 1.3 h
bioavailability [4]: 113%
Structure (SMILES): Cc1ccc(C(=O)NC2CC2)cc1-c1ccc(C(=O)NCC2CC2)cc1
